This is an account of results in patent US12077501B2, “Compounds and compositions for intracellular delivery of agents” (ModernaTX, Inc., priority 2017, dated 2024).

Data set [1] concerns hEPO expression. The data set can be described thus: hEPO expression in CD-1 mice compared with MC3. It is filed as in vivo. The settings on record: intravenous, 0.5 mpk, Table 7e. The text has this: (§1) In contrast, hEPO expression in rats induced by administration of a nanoparticle composition including a compound according to one of formulae (I), (Ia1)-(Ia6), (Ib), (II), (IIa), (III), and (IIIa) was substantially […] than that measured for MC3. […] Tables 7c and 7d show additional protein expressions and clearance data from compositions with various compounds disclosed herein as compared to with MC3. Tables 7e, 7f and 7g show hEPO expression data in CD-1 mice at a dose of 0.5 mpk.

Data set [2] can be described thus: pKa of nanoparticle compositions. The data set is classed as physicochemical.
Data set [3] is described as follows: Particle size and polydispersity index of nanoparticle compositions (Zetasizer Nano ZS). It is filed as physicochemical. The conditions noted are these: Table 1c; nanoparticle compositions. Here is the method: A Zetasizer Nano ZS (Malvem Instruments Ltd, Malvem, Worcestershire, UK) can be used to determine the particle size, the polydispersity index (PDI) and the zeta potential of the nanoparticle compositions in 1×PBS in determining particle size and 15 mM PBS in determining zeta potential.

A short description of data set [4]: Encapsulation efficiency of RNA (QUANT-IT RIBOGREEN RNA assay). It is filed as physicochemical. The conditions noted are these: Table 1c; nanoparticle compositions. The method, boiled down: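 RiboGreen fluorescence (ex about 480, em about 520 nm) compares nanoparticle samples left intact versus disrupted with 2% Triton X-100 (15 min, 37° C). Samples are first brought to roughly 5 μg/mL in 10 mM Tris-HCl, 1 mM EDTA, pH 7.5; percent free RNA equals the blank-corrected intact/disrupted signal ratio.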

Data set [5] in a line: Lipid purity change after storage in EtOH for 96 h at 25 or 37 °C. The data set is classed as physicochemical. Here is the method:
Nanoparticle compositions including a therapeutic and/or prophylactic agent can be optimized according to the selection of a compound according to one of formulae (I), (Ia1)-(Ia10), (Ib), (Ic), (Id), (Id1)-(Id10), (Ie), (Ie1)-(Ie6), (II), (IIa), (III), and (IIIa), the selection of additional lipids, the amount of each lipid in the lipid component, and the wt:wt ratio of the lipid component to the therapeutic and/or prophylactic agent, as described herein. Initial studies were performed to compare the delivery efficiency of nanoparticle compositions including various compounds according to one of formulae (I), (Ia1)-(Ia10), (Ib), (Ic), (Id), (Id1)-(Id10), (Ie), (Ie1)-(Ie6), (II), (IIa), (III), and (IIIa). The cationic lipid MC3 is a current standard in the art. Also determined was the stability of nanoparticles of the disclosure, i.e., the purity after storage in EtOH for 96h at 25° C. or 37° C. (Table Id).

Data set [6] can be described thus: Lipid clearance: % dose remaining in liver of CD-1 mice. It is filed as in vivo. The conditions noted are these: intravenous, 0.5 mg/kg, CD-1 mouse, Table 8a.
From the text: as §1

The structures appear in SMILES notation.

Consider `CCCCCCCCCN(CCCCCCCCC)CCC1CCN(C(=O)CN(CCCCCCCCC)CCN(CCCCCCCCC)CCCCCCCCC)CC1` [Compound 49, 2-((2-(Dinonylamino)ethyl)(nonyl)amino)-1-(4-(2-(dinonylamino)ethyl)piperidin-1-yl)ethan-1-one], for which the “AUC (p/s*h) CD-1 mice 0.5 mpk” value in data set [1] was determined as 1.59E+08 p/s*h.

Regarding `CCCCCCCCCN(CCCCCCCCC)CCC(=O)N1CCN(C(=O)CCN(CCCCCCCCC)CCN(CCCCCCCCC)CCCCCCCCC)CC1` [Compound 52, 3-(Dinonylamino)-1-(4-(3-((2-(dinonylamino)ethyl)(nonyl)amino)propanoyl)piperazin-1-yl)propan-1-one], the “AUC (p/s*h) CD-1 mice 0.5 mpk” value in data set [1] amounted to 7.78E+07 p/s*h.

In turn, `CCCCCCCCCN(CCCCCCCCC)CCN(CCCCCCCCC)CC(=O)N1CCN(C(=O)CN(CCCCCCCCC)CCCOC(=O)CCCCC)CC1` [Compound 56, 3-((2-(4-(N-(2-(Dinonylamino)ethyl)-N-nonylglycyl)piperazin-1-yl)-2-oxoethyl)(nonyl)amino)propyl hexanoate] came in with a pKa in data set [2] (Table 1b) of 6.94. In addition, the “AUC (p/s*h) CD-1 mice 0.5 mpk” value in data set [1] is reported as 4.52E+07 p/s*h.

In turn, `CCCCCCCCCN(CCCCC(=O)OCCCC)CCC1CCN(C(=O)CN(CCCCCCCCC)CCN(CCCCCCCCC)CCCCCCCCC)CC1` [Compound 60, Butyl 5-((2-(1-(N-(2-(dinonylamino)ethyl)-N-nonylglycyl)piperidin-4-yl)ethyl)(nonyl)amino)pentanoate] returned a pKa in data set [2] (Table 1b) of 6.66. Also, the “AUC (p/s*h) CD-1 mice 0.5 mpk” value in data set [1] stood at 4.86E+07 p/s*h.

`CCCCCCCCCN(CCCOC(=O)CCCCC)CCC1CCN(C(=O)CN(CCCCCCCCC)CCN(CCCCCCCCC)CCCCCCCCC)CC1` [Compound 61, 3-((2-(1-(N-(2-(Dinonylamino)ethyl)-N-nonylglycyl)piperidin-4-yl)ethyl)(nonyl)amino)propyl hexanoate] had a pKa in data set [2] (Table 1b) of 6.61. The “AUC (p/s*h) CD-1 mice 0.5 mpk” value in data set [1] stood at 6.29E+07 p/s*h.

On to `CCCCCCCCCN(CCCC(=O)OCCCCC)CCN(CCCCCCCCC)CC(=O)N1CCN(C(=O)CN(CCCCCCCCC)CCCC(=O)OCCCCC)CC1` [Compound 71, Pentyl 4-(nonyl(2-(4-(N-nonyl-N-(2-(nonyl(4-oxo-4-(pentyloxy)butyl)amino)ethyl)glycyl)piperazin-1-yl)-2-oxoethyl)amino)butanoate], for which the pKa in data set [2] (Table 1b) is recorded as 6.44. The “AUC (p/s*h) CD-1 mice 0.5 mpk” value in data set [1] is 2.48E+07 p/s*h.

For `CCCCCCCCCCCCCCN(CCCOC(=O)CCCCCCCCC)CC(=O)N1CCN(C(=O)CN(CCCCCCCCC)CCN(CCCCCCCCC)CCCCCCCCC)CC1` [Compound 89, 3-((2-(4-(N-(2-(Dinonylamino)ethyl)-N-nonylglycyl)piperazin-1-yl)-2-oxoethyl)(tetradecyl)amino)propyl decanoate], in data set [3], the PDI was determined as 0.20 and the “Size (nm)” value was 80.1 nm. Further, the “EE (%)” value in data set [4] was 97.6%. The same compound had a pKa in data set [2] (Table 1c) of 6.94. In data set [5], the “Lipid % change purity in EtOH, 25° C., 96 h” value stood at 2.3% and the “Lipid % change purity in EtOH, 37° C., 96 h” value turned out to be 3.9%. Also, the “AUC (p/s*h) CD-1 mice 0.5 mpk” value in data set [1] is 1.36E+08 p/s*h. Moreover, the “% Dose Remaining 24 hr” value in data set [6] worked out at 0.05%.

On to `CCCCCCCCCCCCCCN(CCCCCCCC(=O)OCCCCC)CC(=O)N1CCN(C(=O)CN(CCCCCCCCC)CCN(CCCCCCCCC)CCCCCCCCC)CC1` [Compound 90, Pentyl 8-((2-(4-(N-(2-(dinonylamino)ethyl)-N-nonylglycyl)piperazin-1-yl)-2-oxoethyl)(tetradecyl)amino)octanoate], for which, in data set [3], the PDI is 0.19 and the “Size (nm)” value came to 81.5 nm. Besides, in data set [4], the “EE (%)” value is reported as 98.4%. This compound registered a pKa in data set [2] (Table 1c) of 6.83. Moreover, in data set [5], the “Lipid % change purity in EtOH, 25° C., 96 h” value stood at 0.1% and the “Lipid % change purity in EtOH, 37° C., 96 h” value was 9.6%. In data set [1], the “AUC (p/s*h) CD-1 mice 0.5 mpk” value stood at 2.08E+07 p/s*h. Besides, in data set [6], the “% Dose Remaining 24 hr” value is reported as 3.93%.

Turning to `CCCCCCCCCN(CCCCCCCCC)CCN(CCCCCCCCC)CC(=O)N1CCC(COC(=O)CN(CCCCCCCCC)CCCCCCCCC)C1` (stereo not drawn) [Compound 102, (1-(N-(2-(Dinonylamino)ethyl)-N-nonylglycyl)pyrrolidin-3-yl)methyl dinonylglycinate], in data set [3], the PDI was determined as 0.23 and the “Size (nm)” value is recorded as 71.5 nm. For the same compound, the “EE (%)” value in data set [4] came to 97.6%. In addition, the pKa in data set [2] (Table 1c) was 5.85. Also, in data set [5], the “Lipid % change purity in EtOH, 25° C., 96 h” value came to 14.8% and the “Lipid % change purity in EtOH, 37° C., 96 h” value is recorded as 31.5%. The “AUC (p/s*h) CD-1 mice 0.5 mpk” value in data set [1] was 6.34E+06 p/s*h.

Regarding `CCCCCCCCCN(CCCCCCCCC)CC(=O)N1CCN(C(=O)CN(CCCCCCCCC)CCCCCCCCC)CC1` [Compound 112, 1,1′-(piperazine-1,4-diyl)bis(2-(dinonylamino)ethan-1-one)], in data set [3], the PDI is listed as 0.22 and the “Size (nm)” value worked out at 73.5 nm. Also, the “EE (%)” value in data set [4] is listed as 97.1%. The compound also registered a pKa in data set [2] (Table 1c) of 6.14. Besides, the “AUC (p/s*h) CD-1 mice 0.5 mpk” value in data set [1] amounted to 1.78E+04 p/s*h. The “% Dose Remaining 24 hr” value in data set [6] stood at 46.37%.

As for `CCCCCC/C=C\COC(=O)CCCN(CCCCCCCCCCCCCC)CC(=O)N1CCN(C(=O)CN(CCCCCCCCC)CCN(CCCCCCCCC)CCCCCCCCC)CC1` [Compound 118, (Z)-Non-2-en-1-yl 4-((2-(4-(N-(2-(dinonylamino)ethyl)-N-nonylglycyl)piperazin-1-yl)-2-oxoethyl)(tetradecyl)amino)butanoate], in data set [3], the PDI came to 0.20 and the “Size (nm)” value worked out at 82.3 nm. Also, the “EE (%)” value in data set [4] was 97.8%. In data set [2] (Table 1c), the pKa was 6.7. Further, the “AUC (p/s*h) CD-1 mice 0.5 mpk” value in data set [1] is reported as 1.64E+08 p/s*h. Also, the “% Dose Remaining 24 hr” value in data set [6] was determined as 55.92%.

In data set [2] (Table 1c), `CCCCCCCCCCCCCCN(CCCCCCCCCCCC(=O)OC)CCC1CCCN(C(=O)CN(CCCCCCCCC)CCN(CCCCCCCCC)CCCCCCCCC)C1` (stereo not drawn) [Compound 123, Methyl 12-((2-(1-(N-(2-(dinonylamino)ethyl)-N-nonylglycyl)piperidin-3-yl)ethyl)(tetradecyl)amino)dodecanoate] showed a pKa of 6.51. In addition, in data set [1], the “AUC (p/s*h) CD-1 mice 0.5 mpk” value is reported as 5.84E+07 p/s*h. For the same compound, in data set [6], the “% Dose Remaining 24 hr” value worked out at 3.75%.

In data set [2] (Table 1c), `CCCCCCCCCCCCCCN(CCCCCC(=O)OCCCCCCC)CCC1CCN(C(=O)CN(CCCCCCCCC)CCN(CCCCCCCCC)CCCCCCCCC)C1` (stereo not drawn) [Compound 125, Heptyl 6-((2-(1-(N-(2-(dinonylamino)ethyl)-N-nonylglycyl)pyrrolidin-3-yl)ethyl)(tetradecyl)amino)hexanoate] had a pKa of 6.89. For the same compound, the “AUC (p/s*h) CD-1 mice 0.5 mpk” value in data set [1] is 7.89E+06 p/s*h. Also, the “% Dose Remaining 24 hr” value in data set [6] came to 2.74%.

In data set [2] (Table 1c), `CCCCCCCCCN(CCCCCCCCC)CCN(CCCCCCCCC)CC(=O)OCCOC(=O)CN(CCCCCCCCC)CCCCCCCCC` [Compound 150, 2-((N-(2-(Dinonylamino)ethyl)-N-nonylglycyl)oxy)ethyl dinonylglycinate] registered a pKa of 5.10. Besides, in data set [1], the “AUC (p/s*h) CD-1 mice 0.5 mpk” value worked out at 2.29E+05 p/s*h. Besides, the “% Dose Remaining 24 hr” value in data set [6] worked out at 57.89%.
